According to the supplement of paper PMC10331698:
± gives the standard deviation of the averaged measurements.

Columns and labels:
Assay in all cases: level (log10 ratio to DMSO vehicle control); higher = higher biomarker level / cell amount than vehicle control
Details in all cases: in DMSO
[1] = compound: C=CC(=O)OCCC(F)(F)C(F)(F)C(F)(F)C(F)(F)F [2-(Perfluorobutyl)ethyl acrylate]
Experimental: (§1)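 BioMAP Diversity Plus panel of 12 human primary cell co-culture systems (3C, 4H, LPS, SAg, BT, BF4T, BE3C, CASM3C, HDF3CGF, KF3CT, MyoF, Mphg). Compounds were added 1 h before stimulation and left for 24 h (MyoF 48 h; BT 72 h for soluble read-outs or 6 d for IgG). Biomarkers were read by ELISA, cytotoxicity by SRB, PBMC viability and proliferation by Alamar Blue. Each well value was divided by the mean of 8 DMSO control wells on the same plate and log10 transformed; duplicate blinded samples were tested at 4 concentrations.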

[2] = compound: CC(C)(C)C(=O)CC(=O)C(F)(F)C(F)(F)C(F)(F)F [(Heptafluorobutanoyl)pivaloylmethane]
Experimental: as §1

[3] = compound: N=C(N)C(F)(F)C(F)(F)C(F)(F)C(F)(F)C(F)(F)C(F)(F)C(F)(F)F [Perfluorooctanamidine]
Experimental: as §1

[4] = compound: NC(=O)C(F)(F)C(F)(F)C(F)(F)C(F)(F)C(F)(F)C(F)(F)C(F)(F)F [Perfluorooctanamide]
Experimental: as §1

[5] = compound: O=C(O)C(F)(F)C(F)(F)C(F)(F)C(F)(F)C(F)(F)C(F)(F)C(F)(F)C(F)(F)Cl [9-Chloro-perfluorononanoic acid]
Experimental: as §1

[6] = compound: O=C(O)CCC(F)(F)C(F)(F)C(F)(F)C(F)(F)C(F)(F)F [2H,2H,3H,3H-Perfluorooctanoic acid]
Experimental: as §1

[7] = compound: OCC(F)(F)C(F)(F)C(F)(F)C(F)(F)C(F)(F)C(F)F [1H,1H,7H-Dodecafluoro-1-heptanol]
Experimental: as §1

Test System | level (log10) ([1]; 6700 nM) | level (log10) ([1]; 20000 nM) | level (log10) ([1]; 60000 nM) | level (log10) ([2]; 6700 nM) | level (log10) ([2]; 20000 nM) | level (log10) ([2]; 60000 nM) | level (log10) ([3]; 6700 nM) | level (log10) ([3]; 20000 nM) | level (log10) ([3]; 60000 nM) | level (log10) ([4]; 6700 nM) | level (log10) ([4]; 20000 nM) | level (log10) ([4]; 60000 nM) | level (log10) ([5]; 6700 nM) | level (log10) ([5]; 20000 nM) | level (log10) ([6]; 6700 nM) | level (log10) ([6]; 20000 nM) | level (log10) ([6]; 60000 nM) | level (log10) ([7]; 6700 nM) | level (log10) ([7]; 20000 nM) | level (log10) ([7]; 60000 nM)
KF3CT:IL-1alpha | -0.036 ± 0.0057 | -0.075 ± 0.013 | -0.059 ± 0.038 | 0.02 ± 0.021 | 0.015 ± 0.013 | 0.02 ± 0.023 | -0.005 ± 0.04 | 0.0115 ± 0.011 | 0.03 | -0.0055 ± 0.011 | 0.0125 ± 0.0064 | 0.039 ± 0.03 | -0.0295 ± 0.042 | -0.056 ± 0.031 | 0.007 ± 0.0085 | -0.0055 ± 0.016 | -0.0345 ± 0.029 | -0.016 ± 0.025 | -0.0195 ± 0.032 | -0.0115 ± 0.043
KF3CT:MMP-9 | -0.01 ± 0.02 | -0.0045 ± 0.012 | -0.022 ± 0.013 | -0.018 ± 0.0099 | -0.0175 ± 0.023 | -0.014 ± 0.041 | -0.006 ± 0.0028 | -0.0275 ± 0.023 | -0.032 | -0.011 ± 0.017 | -0.0265 ± 0.0092 | -0.0905 ± 0.0021 | -0.0345 ± 0.0021 | -0.106 ± 0.0071 | -0.0235 ± 0.021 | -0.018 ± 0.02 | 0.026 ± 0.0057 | 0.0075 ± 0.005 | -0.003 ± 0.011 | 0.011 ± 0.0014
KF3CT:PAI-I | -0.017 ± 0.0071 | -0.005 ± 0.023 | -0.008 ± 0.0085 | -0.0065 ± 0.019 | -0.0025 ± 0.016 | 0.004 ± 0.02 | -0.001 ± 0.033 | -0.017 ± 0.044 | -0.008 | -0.004 ± 0.011 | -0.0085 ± 0.011 | 0.0005 ± 0.0064 | -0.01 ± 0.0057 | -0.101 ± 0.0078 | -0.0015 ± 0.00071 | -0.0065 ± 0.0021 | -0.017 ± 0.0085 | -0.0075 ± 0.0092 | -0.0035 ± 0.011 | 0 ± 0.0042
KF3CT:SRB | -0.01 ± 0.0028 | -0.0095 ± 0.005 | -0.0205 ± 0.013 | -0.0055 ± 0.0021 | -0.003 ± 0.0071 | -0.0065 ± 0.005 | -0.001 ± 0.0014 | -0.004 ± 0.0014 | 0.027 | -0.0065 ± 0.005 | -0.0075 ± 0.0035 | 0 ± 0.0028 | -0.0135 ± 0.0035 | -0.0145 ± 0.012 | -0.006 ± 0.0014 | -0.0015 ± 0.005 | 0.006 ± 0.0085 | -0.0025 ± 0.0064 | -0.001 ± 0.0042 | 0.002 ± 0.0085
KF3CT:TIMP-2 | 0.0145 ± 0.0021 | -0.0175 ± 0.0078 | -0.009 ± 0.023 | 0.001 ± 0.021 | 0.002 ± 0.014 | -0.015 ± 0.0014 | 0.01 ± 0.0014 | 0 ± 0.02 | 0.035 | -0.045 ± 0.0085 | -0.0245 ± 0.04 | -0.033 ± 0.011 | -0.0205 ± 0.0021 | -0.0015 ± 0.0021 | -0.011 | -0.02 ± 0.024 | 0.015 ± 0.0099 | 0.0015 ± 0.005 | 0.0015 ± 0.0021 | 0.0015 ± 0.0064
KF3CT:uPA | -0.012 ± 0.0099 | 0.0155 ± 0.00071 | -0.0225 ± 0.00071 | 0.0025 ± 0.016 | -0.0055 ± 0.012 | -0.003 ± 0.027 | 0.0015 ± 0.0021 | 0.0165 ± 0.0035 | 0.01 | -0.012 ± 0.037 | 0.0035 ± 0.015 | -0.0155 ± 0.012 | 0.0095 ± 0.0078 | 0.01 | -0.008 ± 0.013 | -0.0095 ± 0.033 | -0.004 ± 0.041 | 0.001 ± 0.011 | -0.0155 ± 0.013 | 0.0035 ± 0.015
MyoF:CD106/VCAM-1 | -0.019 ± 0.0085 | -0.044 ± 0.027 | -0.101 ± 0.045 | -0.011 ± 0.035 | -0.0065 ± 0.028 | 0.005 ± 0.0085 | 0.0115 ± 0.026 | -0.002 ± 0.018 | 0.011 | -0.0115 ± 0.015 | 0.014 ± 0.0014 | -0.0185 ± 0.011 | -0.008 ± 0.025 | -0.101 ± 0.023 | -0.0015 ± 0.019 | -0.0115 ± 0.021 | 0.0005 ± 0.012 | -0.014 ± 0.021 | -0.0115 ± 0.0092 | -0.019 ± 0.016
MyoF:CXCL8/IL-8 | -0.0045 ± 0.0078 | -0.0025 ± 0.016 | 0.02 ± 0.025 | 0.022 ± 0.05 | 0.032 ± 0.068 | 0.03 ± 0.055 | -0.003 ± 0.041 | 0.03 ± 0.0099 | 0.043 | -0.01 ± 0.0071 | 0.0135 ± 0.023 | 0.03 ± 0.014 | 0.0025 ± 0.015 | -0.06 ± 0.0057 | -0.032 ± 0.0042 | -0.0215 ± 0.005 | -0.018 | -0.034 ± 0.051 | 0 ± 0.1 | 0.0265 ± 0.063
